# Measured values taken from patent US6737407B1, “Treatment of obesity” (Metabolic Pharmaceuticals, Ltd., priority 1997, dated 2004).
# Where no end group is shown, it is not given here.
# Tested on: Human Abdominal adipose Tissue
# Assay: Antilipogenic activity in human abdominal adipose tissue
# Format: cell-based
# Conditions: 0.1 μM peptide; BSA + insulin
# Procedure: The rate of the incorporation of exogenous [C^14]-glucose into total lipid in adipose tissue was measured as the index of anti-lipogenic activity of hGH 177-191.
# Adipose tissues were sliced into segments of approximately 200 mg each and then placed in Krebs-Ringer bicarbonate (KRB) buffer (pH 7.4) containing 2% defatted BSA, and glucose (0.1 mg/ml) and gassed with 95% O2-5% CO2 at 37° C. After 1 hr preincubation, the tissues were transferred to another 2 ml of fresh media containing [C^14]-glucose (final specific activity 0.05 μCi/μmol), […] of insulin (0.1 mU/ml) for a further 90 min incubation (conditions as above). Then the tissues were removed, washed thoroughly with KRB buffer and lipid was extracted with 5 ml of chlorofom/methanol (2:1, v/v) The extraction solution was washed with 2 ml of MeOH-H2O solution containing 0.1% MgCl2. A 2.5 ml aliquot of the washed extraction solution was taken and transferred to scintillation vials. The [C^14] radioactivity was measured with a liquid scintillation counter. The rates of total lipid synthesis were expressed as μmol [C^14]-glucose incorporated into lipid/g tissue/hr.
# Tables 6 and 7 show the in vitro antilipogenic and lipolytic activity of hGH 177-191 and two representative analogues (Ref Nos. 9604 and 9605) on human adipose tissue.
sequence,measurement,value
LRIVQCRSVEGSCGF (cysteine pairing not given here) [Ref No. 9401],14C incorporation,40 ± 3 Av DPM/mg tissue/hour
